Patent US6930103B2, “Use of vasopeptidase inhibitors in the treatment of metabolic diseases, nephropathy and advanced glycation end-product associated diseases” (Aventis Pharma Deutschland GmbH, priority 2002, dated 2005)

Tests used:
ZDF rats = test: RP-HPLC analysis of CML in kidney and heart of ZDF rats; format: in vivo, rat; settings: for mean CML conc.: RP-HPLC, ZDF Placebo = 100
Procedure: Kidney AGE values were determined by Dot blot analysis (Stracke et al., Exp. Clin. Endocrinol. Diabets 2002, 109, 330-336) and Reversed-phase high performance liquid chromatography or RP-HPLC (Drusch et al., Food Chem. 1999, 65, 547-553).
[…] Two animals of each group were analyzed. Grinding of the kidney and heart was performed in liquid nitrogen using a freezer mill (Freezer 6750, C3 Analysetechnik GmbH). Hydrolysis of the organ samples was performed with 6 M hydrochloric acid (HCl) at 110° C. for 12 hours. Sample treatment with o-phthaldialdehyde (OPA) and RP-HPLC was performed as described in Drusch et al., Food Chem. 1999, 65, 547-553.

endothelial cells = test: NO and superoxide release from endothelial cells in rabbits fed an atherogenic diet; format: in vivo, White New Zealand rabbits; settings: varied diet rabbits; mean ± SEM
Excerpt: It was shown in the atherogenic rabbit model (White New Zealand rabbits were fed with 0.25% cholesterol plus 3% coconut oil) that even a short 6 week period of an atherogenic diet leads to sustained endothelial dysfunction, even though the animals received a normal diet for 3 months thereafter.
The endothelium-dependent relaxation of isolated aortic rings of rabbits as well as the release of nitric oxide and superoxide from endothelial cells serve as measures of endothelial dysfunction.
• Groups: • Standard: 18 weeks normal diet • Atherogenic: 18 weeks atherogenic diet (3% Coconut oil+0.25% Cholesterol) • Varied diet (Var.): 6 weeks atherogenic diet+12 weeks normal diet • Varied Diet+ramipril: 6 weeks atherogenic diet+12 weeks normal diet+ramipril • Varied diet+compound (II-B): 6 weeks atherogenic diet+12 weeks normal diet+cpd. (II-B)
NO and O2^− are markers for endothelial function: increased relaxation and increased NO levels are beneficial, while increased O2^− formation inhibits the beneficial effects of NO.

fat ZDF rats = test: Histological examination of kidneys of ZDF rats after 6 months treatment; format: in vivo, rat; design: Armanni-Ebstein cells MEAN SEVERITY / Glomerulosclerosis MEAN SEVERITY / Atrophy: renal tubule MEAN SEVERITY / Casts: renal tubule MEAN SEVERITY: scale not given here
Procedure: The protein and creatinine excretion in the urine of male Zucker Diabetic Fatty (ZDF) Rats (ZDF Gmi fa/fa) and heterozygous control animals (ZDF Gmi −/+) of 10, 17, 27 and 37 weeks age was determined. In further groups, diabetic rats were chronically given either ramipril (1 mg/kg/day, in drinking water) or a compound of formula (II-B) (30 mg/kg/day, in food) over a period from 10 to 37 weeks. The animals were sacrificied after 37 weeks, and their kidneys examined histologically.
In the attached tables a summary of the findings on the kidneys after a treatment period of 6 months is listed.

[1] = system: Zucker diabetic fatty rats; test: Blood glucose analysis in ZDF rats; format: in vivo, rat; settings: for blood glucose, mean: ZDF rats
Procedure: Blood glucose and HbA1c was measured in 10- and 17-week-old male Zucker diabetic fatty rats (Genetic Model Inc.), control rats (Genetic Model Inc.) and male ZDF rats treated for seven weeks with 30 mg/kg/d of compound (II-B), 35 mg/kg/d of compound (III-B) and 1 mg/kg/d ramipril. Fifteen animals were analyzed in each group.
Blood samples for glucose determination were obtained from ZDF rats using standard sampling tubes. Within 30 minutes of collection, samples were separated from the cells by centrifugation. Quantitative determination of blood glucose in serum was performed with an enzymatic in vitro test from Roche Diagnostics GmbH (Gluco-quant, Roche Diagnostics GmbH) using the automated clinical chemistry analyzer Boehringer Mannheim/Hitachi 912.

[2] = kidneys, male fat ZDF rats, terminal sacrifice
[3] = kidneys, male fat ZDF rats, terminal sacrifice, examined: D1 9, D4 8
[4] = kidneys, male fat ZDF rats, terminal sacrifice, examined: D1 9, D4 8, listed as compound (II-B)

CC(=O)S[C@H](C(=O)N[C@H]1Cc2ccccc2[C@H]2CCC[C@@H](C(=O)O)N2C1=O)C(C)C [cpd. (II-B)]
mean CML conc. (ZDF rats; hearts of 17-week-old ZDF rats): 26% | mean CML conc. (ZDF rats; kidneys of 17-week-old ZDF rats): 55% | mean CML conc. (ZDF rats; kidneys of 37-week-old ZDF rats): 58% | CML concentration in the heart of 17-week-old ZDF rats (ZDF rats; in words): reduces | CML concentration in the kidneys of 17-week-old ZDF rats (ZDF rats; in words): reduces | CML concentration in the kidneys of 37-week-old ZDF rats (ZDF rats; in words): reduces | NO (endothelial cells): 329.19 ± 30.10 nM | O2^− (superoxide) (endothelial cells): 30.18 ± 6.00 nM | Armanni-Ebstein cells GRADE 2: number of animals (fat ZDF rats; [2]): 5 | Armanni-Ebstein cells GRADE 3: number of animals (fat ZDF rats; [2]): 3 | Armanni-Ebstein cells MEAN SEVERITY (fat ZDF rats; [2]): 2.4 | Atrophy: renal tubule GRADE 1: number of animals (fat ZDF rats; [2]): 1 | Atrophy: renal tubule GRADE 3: number of animals (fat ZDF rats; [2]): 1 | Atrophy: renal tubule MEAN SEVERITY (fat ZDF rats; [2]): 2.0 | Casts: renal tubule GRADE 1: number of animals (fat ZDF rats; [2]): 2 | Casts: renal tubule GRADE 2: number of animals (fat ZDF rats; [2]): 1 | Casts: renal tubule MEAN SEVERITY (fat ZDF rats; [2]): 1.3 | Glomerulosclerosis GRADE 1: number of animals (fat ZDF rats; [2]): 1 | Glomerulosclerosis GRADE 3: number of animals (fat ZDF rats; [2]): 1 | Glomerulosclerosis MEAN SEVERITY (fat ZDF rats; [2]): 1.0 | Armanni-Ebstein cells: number of animals with finding (total affected) (fat ZDF rats; [3]): 8 | Atrophy: renal tubule: number of animals with finding (total affected) (fat ZDF rats; [3]): 2 | Casts: renal tubule: number of animals with finding (total affected) (fat ZDF rats; [3]): 3 | Glomerulosclerosis: number of animals with finding (total affected) (fat ZDF rats; [3]): 1 | Atrophy: renal tubule: number of animals with finding (total affected) (fat ZDF rats; [4]): low incidences | Casts: renal tubule: number of animals with finding (total affected) (fat ZDF rats; [4]): low incidences | Glomerulosclerosis: number of animals with finding (total affected) (fat ZDF rats; [4]): not present | Dilatation: pelvis GRADE 2: number of animals (fat ZDF rats; rat, in vivo): 1 | Dilatation: pelvis GRADE 3: number of animals (fat ZDF rats; rat, in vivo): 5 | Dilatation: pelvis GRADE 4: number of animals (fat ZDF rats; rat, in vivo): 1 | Dilatation: pelvis MEAN SEVERITY (fat ZDF rats; rat, in vivo): 3.0 | Blood glucose concentration compared to the untreated ZDF rats ([1]; 17-week-old ZDF rats, in words): significantly lower | blood glucose, mean ([1]; age 10 weeks (start of treatment)): 10.67 mM | blood glucose, mean ([1]; age 17 weeks (treated for seven weeks)): 21.09 mM | Blood glucose value compared with the ACE inhibitor ramipril ([1]; in words): lower values
